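96-well plates; 48 h exposure; 5 concentrations. Endpoints by linear interpolation between flanking doses. Not reached: highest tested concentration assigned. At the GI50, growth is halved. TGI denotes the concentration required for complete inhibition of growth.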
Assays:
Assay in all cases: NCI tumour cell line growth inhibition, 48 h
[1] = system: U251 CNS
[2] = system: CAKI-1 renal
[3] = system: HT29 colon
[4] = system: NCI-H226 lung
[5] = system: SN12C renal
[6] = system: ACHN renal
[7] = system: SF-268 CNS
[8] = system: HCC-2998 colon
[9] = system: SF-295 CNS
[10] = system: DU-145 prostate
[11] = system: SNB-19 CNS
[12] = system: MDA-MB-231 breast
[13] = system: SK-MEL-5 melanoma
[14] = system: HL-60(TB) leukemia
[15] = system: HOP-62 NSCLC
[16] = system: NCI-H460 lung
[17] = system: BT-549 breast
[18] = system: MDA-MB-435
[19] = system: KM12 colon
[20] = system: 786-0 renal
[21] = system: CCRF-CEM leukemia
[22] = system: OVCAR-8 ovarian
[23] = system: MCF7 breast
[24] = system: RXF 393 renal
[25] = system: UACC-62 melanoma
[26] = system: SNB-75 CNS
[27] = system: SK-OV-3 ovarian
[28] = system: K-562 leukemia
[29] = system: OVCAR-5 ovarian
[30] = system: NCI/ADR-RES ovarian
[31] = system: HCT-15 colon
[32] = system: MALME-3M melanoma
[33] = system: A498 renal
[34] = system: MOLT-4 leukemia
[35] = system: SK-MEL-28 melanoma
[36] = system: MDA-N
[37] = system: SK-MEL-2 melanoma
[38] = system: UO-31 renal
[39] = system: NCI-H522 lung
[40] = system: NCI-H23 lung
[41] = system: OVCAR-3 ovarian
[42] = system: IGROV1 ovarian
[43] = system: T-47D breast
[44] = system: SF-539 CNS
[45] = system: COLO 205 colon
[46] = system: RPMI-8226 leukemia
[47] = system: M14 melanoma
[48] = system: OVCAR-4 ovarian
[49] = system: A549 NSCLC
[50] = system: HOP-92 NSCLC
[51] = system: EKVX NSCLC
[52] = system: PC-3 prostate
[53] = system: TK-10 renal
[54] = system: HS 578T breast
[55] = system: UACC-257 melanoma
[56] = system: HCT-116 colon
[57] = system: LOX IMVI melanoma
[58] = system: SR leukemia
[59] = system: SW-620 colon
[60] = system: HOP-18 NSCLC
[61] = system: DLD-1 colon
[62] = system: KM20L2 colon
[63] = system: LXFL 529 NSCLC
[64] = system: DMS 114 small cell lung
[65] = system: M19-MEL melanoma
[66] = system: SNB-78 CNS
[67] = system: XF 498 CNS

Q: Which results are given for COc1c2occc2cc2ccc(=O)oc12?
A: TGI [1]: > 100 µM; TGI [2]: > 100 µM; GI50 [3]: > 100 µM; TGI [3]: > 100 µM; GI50 [4]: > 100 µM; TGI [4]: > 100 µM; TGI [5]: > 100 µM; TGI [6]: > 100 µM; GI50 [7]: > 100 µM; TGI [7]: > 100 µM; TGI [8]: > 100 µM; TGI [9]: > 100 µM; TGI [10]: > 100 µM; TGI [11]: > 100 µM; TGI [12]: > 100 µM; TGI [13]: > 100 µM; TGI [14]: > 100 µM; TGI [15]: > 100 µM; TGI [16]: > 100 µM; TGI [17]: > 100 µM; TGI [18]: > 100 µM; GI50 [19]: > 100 µM; TGI [19]: > 100 µM; TGI [20]: > 100 µM; TGI [21]: > 100 µM; GI50 [22]: > 100 µM; TGI [22]: > 100 µM; TGI [23]: > 100 µM; GI50 [24]: > 100 µM; TGI [24]: > 100 µM; TGI [25]: > 100 µM; GI50 [26]: 55.1 µM; TGI [26]: > 100 µM; TGI [27]: > 100 µM; TGI [28]: > 100 µM; TGI [29]: > 100 µM; GI50 [30]: > 100 µM; TGI [30]: > 100 µM; TGI [31]: > 100 µM; GI50 [32]: > 100 µM; TGI [32]: > 100 µM; TGI [33]: > 100 µM; TGI [34]: > 100 µM; TGI [35]: > 100 µM; TGI [36]: > 100 µM; TGI [37]: > 100 µM; TGI [38]: > 100 µM; GI50 [39]: > 100 µM; TGI [39]: > 100 µM; TGI [40]: > 100 µM; TGI [41]: > 100 µM; GI50 [42]: > 100 µM; TGI [42]: > 100 µM; TGI [43]: > 100 µM; TGI [44]: > 100 µM; TGI [45]: > 100 µM; TGI [46]: > 100 µM; TGI [47]: > 100 µM; TGI [48]: > 100 µM; TGI [49]: > 100 µM; TGI [50]: > 100 µM; GI50 [51]: 96.9 µM; TGI [51]: > 100 µM; TGI [52]: > 100 µM; TGI [53]: > 100 µM; GI50 [54]: > 100 µM; TGI [54]: > 100 µM; TGI [55]: > 100 µM; TGI [56]: > 100 µM; TGI [57]: > 100 µM; TGI [58]: > 100 µM; TGI [59]: > 100 µM

Q: Which results are given for COc1cc2ccc3c4cc(OC)c(OC(C)C)cc4c[n+](C)c3c2cc1OC?
A: TGI [1]: > 100 µM; TGI [2]: > 100 µM; TGI [3]: > 100 µM; TGI [4]: > 100 µM; TGI [5]: > 100 µM; TGI [6]: > 100 µM; TGI [60]: 88.6 µM; TGI [61]: > 100 µM; TGI [7]: > 100 µM; TGI [8]: > 100 µM; TGI [9]: > 100 µM; TGI [62]: > 100 µM; TGI [11]: > 100 µM; TGI [13]: > 100 µM; TGI [14]: > 100 µM; TGI [15]: > 100 µM; TGI [16]: > 100 µM; TGI [19]: > 100 µM; TGI [20]: > 100 µM; TGI [21]: > 100 µM; TGI [22]: > 100 µM; TGI [24]: > 100 µM; TGI [25]: > 100 µM; TGI [26]: > 100 µM; TGI [27]: > 100 µM; TGI [28]: > 100 µM; TGI [29]: > 100 µM; TGI [31]: > 100 µM; TGI [32]: > 100 µM; TGI [34]: > 100 µM; TGI [35]: > 100 µM; TGI [37]: 55.6 µM; TGI [38]: > 100 µM; TGI [39]: 70.1 µM; TGI [40]: > 100 µM; TGI [41]: > 100 µM; TGI [42]: > 100 µM; TGI [44]: > 100 µM; TGI [63]: > 100 µM; TGI [45]: 36.5 µM; TGI [46]: > 100 µM; TGI [47]: > 100 µM; TGI [48]: > 100 µM; TGI [49]: > 100 µM; TGI [50]: > 100 µM; TGI [51]: > 100 µM; TGI [64]: 41.4 µM; TGI [53]: > 100 µM; TGI [55]: > 100 µM; TGI [56]: > 100 µM; TGI [57]: > 100 µM; TGI [65]: > 100 µM; TGI [58]: > 100 µM; TGI [59]: > 100 µM

Q: With COc1ccc(/C=C2\CCc3ccccc3C2=O)cc1OC as the compound, how does the TGI [1] read?
A: The TGI was over 100 µM.

Q: And the TGI [2]?
A: Its TGI is over 100 µM.

Q: And the TGI [3]?
A: Its TGI is over 100 µM.

Q: And the TGI [5]?
A: The TGI was 95.7 µM.

Q: What about the TGI [6] of the same compound?
A: Its TGI is over 100 µM.

Q: And the TGI [60]?
A: The TGI was over 100 µM.

Q: And the TGI [61]?
A: Its TGI is 56.4 µM.

Q: And the TGI [7]?
A: Its TGI is 62.6 µM.

Q: What about the TGI [8] of the same compound?
A: The TGI was over 100 µM.

Q: What about the TGI [9] of the same compound?
A: The TGI was 95.9 µM.

Q: And the TGI [62]?
A: The TGI was over 100 µM.

Q: And the TGI [11]?
A: Its TGI is over 100 µM.

Q: What about the TGI [13] of the same compound?
A: The TGI was 30.9 µM.

Q: What about the TGI [15] of the same compound?
A: Its TGI is over 100 µM.

Q: What about the TGI [16] of the same compound?
A: The TGI was over 100 µM.

Q: And the TGI [19]?
A: The TGI was 39.5 µM.

Q: What about the TGI [20] of the same compound?
A: Its TGI is over 100 µM.

Q: And the TGI [21]?
A: The TGI was over 100 µM.

Q: And the TGI [22]?
A: The TGI was over 100 µM.

Q: What about the TGI [25] of the same compound?
A: Its TGI is 34.1 µM.

Q: What about the TGI [26] of the same compound?
A: Its TGI is 76.9 µM.

Q: And the TGI [27]?
A: Its TGI is 78.9 µM.

Q: And the TGI [28]?
A: The TGI was over 100 µM.

Q: What about the TGI [29] of the same compound?
A: The TGI was over 100 µM.

Q: What about the TGI [31] of the same compound?
A: The TGI was 45.5 µM.

Q: And the TGI [32]?
A: Its TGI is over 100 µM.

Q: And the TGI [33]?
A: The TGI was over 100 µM.

Q: What about the TGI [34] of the same compound?
A: Its TGI is 71.3 µM.

Q: What about the TGI [35] of the same compound?
A: Its TGI is 73.2 µM.

Q: And the TGI [37]?
A: The TGI was 83.9 µM.

Q: What about the TGI [38] of the same compound?
A: Its TGI is over 100 µM.

Q: What about the TGI [39] of the same compound?
A: The TGI was 47 µM.

Q: And the TGI [40]?
A: The TGI was over 100 µM.

Q: And the TGI [41]?
A: Its TGI is over 100 µM.

Q: What about the TGI [42] of the same compound?
A: The TGI was over 100 µM.

Q: What about the TGI [44] of the same compound?
A: Its TGI is 65.9 µM.

Q: And the TGI [63]?
A: The TGI was over 100 µM.

Q: And the TGI [45]?
A: Its TGI is 47.2 µM.

Q: And the TGI [46]?
A: The TGI was 64.8 µM.

Q: What about the TGI [47] of the same compound?
A: Its TGI is 50 µM.

Q: And the TGI [66]?
A: The TGI was over 100 µM.

Q: And the TGI [48]?
A: The TGI was 79.6 µM.

Q: And the TGI [49]?
A: Its TGI is over 100 µM.

Q: What about the TGI [51] of the same compound?
A: The TGI was over 100 µM.

Q: And the TGI [64]?
A: Its TGI is 47.1 µM.

Q: What about the TGI [67] of the same compound?
A: The TGI was 56.5 µM.

Q: What about the TGI [53] of the same compound?
A: The TGI was over 100 µM.

Q: And the TGI [55]?
A: The TGI was 43.1 µM.

Q: What about the TGI [56] of the same compound?
A: Its TGI is 36.7 µM.

Q: What about the TGI [65] of the same compound?
A: The TGI was over 100 µM.

Q: What about the TGI [59] of the same compound?
A: Its TGI is 82.5 µM.
